Laboratory results taken from PMC4117522, “Proteasome Inhibitors Alter Levels of Intracellular Peptides in HEK293T and SH-SY5Y Cells” (PLoS ONE, 2014).
Several values for one entry are separate records, joined by “and”; a condition that tells them apart may be missing. Identical values can stand only once.

Test system: HEK293T cells
Assay: Quantitative peptidomics (TMAB isotopic labels, LC-MS/MS) of inhibitor-treated HEK293T cells
Format: cell-based, human
Method: HEK293T and SH-SY5Y cells were grown to 80–90% confluence in DMEM and RPMI supplemented with 10% fetal bovine serum and penicillin/streptomycin. A single plate of cells (150 mm×25 mm) was used for each group. At the start of the experiment, media were removed from the plates and cells were washed with DPBS (138 mM NaCl, 8.06 mM Na2HPO4, 2.67 mM KCl, 1.47 mM KH2PO4, 0.9 mM CaCl2 and 0.49 mM MgCl2). This was followed by addition of serum-free media containing the proteasome or aminopeptidase inhibitors, or 0.05% DMSO as a control for the inhibitors that were soluble in DMSO. Each experiment consisted of two control groups and two or three replicate groups of cells treated with one of the inhibitors. The cells were incubated at 37°C for 20 minutes, following which media containing the inhibitor was removed, cells were washed with DPBS, detached from the plate by scraping into DPBS (without trypsin), and centrifuged at 800×g for 5 min. The wash buffer was supplemented with the appropriate inhibitor at the same concentration as used for the treatment, thereby ensuring that the changes induced in peptide levels were not reversed during harvesting of cells due to possible dissociation of the reversible inhibitors. The wash time (including centrifugation) was 15 minutes, for a total treatment time of 35 minutes. After centrifugation, the cell pellet was resuspended in 1 ml of 80°C water and incubated in an 80°C water bath for 20 minutes to inactivate proteases. The mixture was again centrifuged (13,000×g, 30 min, 4°C) and was stored at −80°C overnight. For peptide extraction, the samples were thawed and centrifuged again. The lysate was subsequently cooled on ice and acidified with HCl to a final concentration of 10 mM. After 15 min incubation on ice, the lysate was centrifuged at 13,000×g for 30 min at 4°C. To the supernatant, 250 µL of dibasic sodium phosphate (0.4 M, pH 9.5) was added and the mixture was stored at −80°C until labeling.
The labeling protocol has been earlier described in detail. Each group within an experiment (control/treated) was labeled with a different isotopic tag. The TMAB-NHS labels were dissolved in DMSO to a concentration of 400 µg/µL and 15 mg of label was used per 150 mm plate of cells. […] At the beginning, the pH of the peptide extract was adjusted to 9.5 with 1 M NaOH. Labeling was performed over 8 rounds; 4.69 µL of the label was added to the extract every 20 min. The pH was measured between each round and if necessary, brought back to 9.5 for the first five rounds. For rounds 6–8, the pH was not adjusted after the addition of the TMAB-NHS reagent. After the final round of label addition, the pH was adjusted to 9.5 again and the extracts were incubated at room temperature for 90 min. Thereafter, 30 µL of 2.5 M glycine was added to quench any unreacted label. Following 40 min incubation at room temperature, the labeled extracts for a single experiment were pooled and filtered through Amicon Ultracel-10 K units. It is important to ensure that only N-terminal amines and lysine side-chain amines of peptides are TMAB-labeled and not tyrosines. To hydrolyze any labeled tyrosine, 30 µL of a 2 M solution of hydroxylamine hydrochloride (pH 3.7) was added over three rounds to the pooled and filtered sample. The pH was measured after the addition of hydroxylamine and adjusted to 9.0 with 1 M NaOH. The samples were desalted through PepClean C-18 spin columns (Thermo Scientific, Rockford, IL, USA) by following manufacturer’s instructions. Peptides were eluted using 160 µL of 0.5% TFA and 70% acetonitrile, frozen at −80°C and then lyophilized in a vacuum centrifuge and stored at −80°C until analysis by mass spectrometry.
The LC-MS/MS experiments were performed on a Synapt G2 mass spectrometer coupled to a NanoAcquity capillary liquid chromatography system (Waters Co., Milford, MA, USA).

## CN1C/C(=C/c2ccc(B(O)O)cc2)C(=O)/C(=C\c2ccc(B(O)O)cc2)C1 [AM114, reference compound]
1 uM, 35', HEK
  Relative Levels of peptide ADKVPKTAENFRAL (PPIA): 1.29 and 0.68 and 0.72
  Relative Levels of peptide AGAAVDELGKVLTPTQV (PEBP1): 1.53 and 0.85
  Relative Levels of peptide AKADGIVSKNF (RPS21): 0.95 and 0.82 and 0.98
  Relative Levels of peptide APIKVGDAIPAVEVF (PRDX5): 1.44 and 0.88
  Relative Levels of peptide APPTAYIDFARQK (TPI1): 1.67 and 1.17
  Relative Levels of peptide ASQPDVDGFLVGGASLKPEFVDIINAKQ (TPI1): 0.84 and 1.26 and 1.47
  Relative Levels of peptide AVDGEPLGRVSF (PPIA): 1.20 and 0.93 and 0.87
  Relative Levels of peptide Ac-AAPVDLELKKAFTEL (PFDN1): 1.09 and 0.91 and 0.97
  Relative Levels of peptide Ac-AEEGIAAGGVMDVNTALQEVLKT (RPS12): 0.90 and 1.10
  Relative Levels of peptide Ac-ANLERTFIAIKPDGV (NME2): 1.00 and 1.33
  Relative Levels of peptide Ac-ASKRALVIL (PARK7): 1.00
  Relative Levels of peptide Ac-ASKRALVILA (PARK7): 0.86 and 1.00
  Relative Levels of peptide Ac-MDTSRVQPIKL (RPS28): 0.94 and 1.00
  Relative Levels of peptide Ac-MDTSRVQPIKLAR (RPS28): 1.18 and 1.12 and 1.00
  Relative Levels of peptide Ac-MDTSRVQPIKLARVTKV (RPS28): 1.29 and 1.14
  Relative Levels of peptide Ac-SSEEGKLFVGGLNF (RBM3): 0.90 and 1.03
  Relative Levels of peptide Ac-SYGRPPPDVEGMTSLKVDNL (SRSF2): 0.91 and 1.06 and 1.09
  Relative Levels of peptide Ac-[…] (COX6B1): 1.03 and 0.97
  Relative Levels of peptide GESDDSILRLAKADGIVSKNF (RPS21): 1.09 and 0.90 and 0.85
  Relative Levels of peptide GFGDLKSPAGLQVL (EEF1B2): 1.74 and 1.18
  Relative Levels of peptide GISTPEELGLDKV (COX5A): 1.60 and 1.00
  Relative Levels of peptide KHTGPGILSM (PPIA): 1.13 and 1.00 and 0.92
  Relative Levels of peptide PGIVELPTLEEL (NDUFA8): 1.07 and 0.80 and 0.67
  Relative Levels of peptide SLGELIGTLNA (TPI1): 1.06 and 0.59 and 0.88
  Relative Levels of peptide VNPTVFFDI (PPIA): 1.20 and 0.67 and 0.80
HEK293T cells, 35 min, 2.5 µM MG132, 1 µM other inhibitors
  change in levels of intracellular peptides (peptidome): did not produce a substantial change in levels of peptides
